Measured values from patent US11642350B2, “Agent for preventing myopia, treating myopia, and/or preventing myopia progression comprising tiotropium as active ingredient” (priority 2017, dated 2023).
Structures can show the parent of a compound that is named as a salt.

Columns and labels:
Myopia Chick Model = assay: Suppression of axial length elongation in myopia chick model (goggle-induced, intravitreal administration); format: in vivo, chicks (white leghorns); settings: 20 μL intravitreally on day 0, 2 and 4, axial length measured on day 6
Experimental: Test 1. Test About Suppression of Axial Length Elongation in Myopia Chick Model
Tiotropium bromide hydrate was dissolved in saline to prepare 0.1 mM and 10 mM tiotropium solutions.
And, atropine sulfate hydrate was dissolved in saline to prepare 100 mM atropine solution as a reference example.
As a control, saline was used.
A test tube having a diameter of 18 mm was cut off at the level of 10 mm from the bottom, and the cutting circle of the cut-off bottom part was bonded to a flat rubber packing with an adhesive agent to prepare a lens (goggle). 7-day-old chicks (white leghorns) were obtained, and the prepared goggle was attached to the right eye of each chick with an adhesive agent to induce myopia to the chicks. The left eye thereof was its control.
To each of the tiotropium administration groups, 20 μL of each prepared tiotropium solution was intravitreally administered on the day that the goggle was fixed (on day 0), on day 2, and on day 4. […]
On day 6 from the myopia induction, the axial length of right and left eyeballs was measured with a ultrasound axial length measurement ECHOSCAN US-500 (NIDEK CO., LTD.) (A-scan). The difference of axial lengths and the suppression rate of the axial length elongation were calculated by the following formulae.

Myopia Mice Model = assay: Suppression of axial length elongation in myopia mice model (spectacle lens-induced, eyedrop); format: in vivo, mice (C57BL/6J); settings: 7 μL topically once a day, post-natal day 33 to 61, -15D lens, mouse
Experimental: Test 2. Test About Suppression of Axial Length Elongation in Myopia Mice Model
Tiotropium bromide hydrate and glycerin were dissolved in water for injection to prepare 0.0001% (w/v) and 0.01% (w/v) tiotropium ophthalmic solutions without adjusting pH.
In a similar way, atropine sulfate hydrate and glycerin were dissolved in water for injection to prepare 0.1% (w/v) atropine ophthalmic solution without adjusting pH. The vehicle (control) was isotonic water which was prepared with water for injection and glycerin.
Spectacle lens-induced myopia model was established by placing −15D hard lens on the right eye of mice (C57BL/6J), which was served as the experimental eye, at post-natal days 18. Briefly, a −15D lens was glued to an annulus (with 8 mm base curve) of Velcro. This mating piece was then attached to the Velcro that had been previously glued to the hair around the right experimental eye using a cyanoacrylate. An air gap of 1.5 mm existed between the back part of the lens and the anterior surface of the cornea.
Ocular biometry such as axial length measurement was done using in vivo Optical Low Coherence Interferometry (OLCI-AcMaster). The axial length was measured at post-natal days 33 and 61.
The ratio for suppressing the axial length elongation with each example was calculated by the following equation: […]
Tiotropium (at 0.0001% or 0.01%) or atropine (at 0.1%) was administered once a day post-natal day 33 until day 61 in the spectacle lens-induced myopia model. 7 μL of each drug was administered topically to the right eye in dim red light at the each day.

[1] = tested on: pupil diameter of the mice; assay: Evaluation of mydriatic action (pupil diameter after a single eyedrop); format: in vivo; settings: mouse; for Pupil diameter before administration (mm): before the eyedrop (baseline); for Maximum pupil diameter (mm) / Measurement time of maximum pupil diameter: single dose 5 μL to both eyes; for Maximum pupil diameter (mm): longest average among 1, 2, 4 and 24 h
Experimental: Test 3. Evaluation of Mydriatic Action
Tiotropium bromide hydrate and glycerin were dissolved in water for injection to prepare 0.01% (w/v), 0.1% (w/v), and 2% (w/v) tiotropium ophthalmic solutions without adjusting pH.
In a similar way, atropine sulfate hydrate and glycerin were dissolved in water for injection to prepare 0.01% (w/v), and 0.1% (w/v) atropine ophthalmic solutions without adjusting pH.
A single dose (5 μL) of each prepared ophthalmic solution was administered to both eyes of mice (6 eyes of 3 mice per each ophthalmic solution). Before the administration (eyedrop), and 1, 2, 4 and 24 hours after the administration, each pupil diameter of the mice was measured. The measured pupil diameters of the mice at each measurement time per each test sample were averaged to obtain each average value as each average pupil diameter. Among each average pupil diameter at each measurement time, the longest diameter was defined as the maximum pupil diameter.

[2] = 0.0001% (w/v) ophthalmic solution
[3] = 0.01% (w/v) ophthalmic solution
[4] = 0.01% (w/v) ophthalmic solution group
[5] = 0.1% (w/v) ophthalmic solution group

| SMILES | Suppression rate (%) of the axial length elongation (Myopia Chick Model; 0.1 mM solution) | Mean (μm) change in the axial length (Myopia Mice Model; [2]) | Suppression rate (%) of the axial length elongation (Myopia Mice Model; [2]) | Mean (μm) change in the axial length (Myopia Mice Model; [3]) | Suppression rate (%) of the axial length elongation (Myopia Mice Model; [3]) | Pupil diameter before administration (mm) [1, 4] | Maximum pupil diameter (mm) [1, 3] | Measurement time of maximum pupil diameter [1, 3] | Pupil diameter before administration (mm) [1, 5] | Maximum pupil diameter (mm) ([1]; 0.1% (w/v) ophthalmic solution) | Measurement time of maximum pupil diameter ([1]; 0.1% (w/v) ophthalmic solution) | Pupil diameter before administration (mm) ([1]; 2% (w/v) ophthalmic solution group) | Maximum pupil diameter (mm) ([1]; 2% (w/v) ophthalmic solution) | Measurement time of maximum pupil diameter ([1]; 2% (w/v) ophthalmic solution) | Suppression rate (%) of the axial length elongation (Myopia Chick Model; 100 mM atropine solution (reference example)) | Mean (μm) change in the axial length (Myopia Mice Model; 0.1% (w/v) ophthalmic solution) | Suppression rate (%) of the axial length elongation (Myopia Mice Model; 0.1% (w/v) ophthalmic solution) |
| --- | --- | --- | --- | --- | --- | --- | --- | --- | --- | --- | --- | --- | --- | --- | --- | --- | --- |
| C[N+]1(C)C2CC(OC(=O)C(O)(c3cccs3)c3cccs3)CC1C1OC12 (stereo not drawn) [tiotropium, (1α,2β,4β,5α,7β)-7-[(hydroxydi-2-thienylacetyl)oxy]-9,9-dimethyl-3-oxa-9-azoniatricyclo[3.3.1.0^2,4]nonane bromide monohydrate] | 45% | 135.84 μm | 14.20% | 112.95 μm | 28.66% | 0.36 mm | 1.24 mm | 4 h | 0.43 mm | 2.23 mm | 2 h | 0.36 mm | 2.15 mm | 1 h | – | – | – |
| CN1[C@@H]2CC[C@H]1C[C@@H](OC(=O)C(CO)c1ccccc1)C2 (some centres unmarked) [atropine, atropine sulfate hydrate] | – | – | – | – | – | 0.42 mm | 1.43 mm | 1 h | 0.40 mm | 1.96 mm | 2 h | – | – | – | 83% | 111.61 μm | 29.50% |
